Blank lines part the entries; values can stand above or below the molecule they belong to. Residues, ends and D or L forms follow the SMILES beside them. *: point of attachment. Cbz = O=C(OCc1ccccc1)*; CH2F = FC*
Key:
[1] = system: cIAP-1 in cancer cell lines; assay: Induction of cIAP-1 degradation in cancer cells; assay type: cell-based; details: sensitive and resistant cancer cell lines
[2] = biological target: T1, human XIAP protein (residues 120-356) (Homo sapiens, UniProt P98170); assay: Fluorescence-polarization-based binding assay to XIAP protein (Smac2-F tracer); details: read-out: Binding to XIAP IC50 values
T1 construct: human XIAP protein (residues 120-356) (10 nM)
T1 sequence (P98170 120-356): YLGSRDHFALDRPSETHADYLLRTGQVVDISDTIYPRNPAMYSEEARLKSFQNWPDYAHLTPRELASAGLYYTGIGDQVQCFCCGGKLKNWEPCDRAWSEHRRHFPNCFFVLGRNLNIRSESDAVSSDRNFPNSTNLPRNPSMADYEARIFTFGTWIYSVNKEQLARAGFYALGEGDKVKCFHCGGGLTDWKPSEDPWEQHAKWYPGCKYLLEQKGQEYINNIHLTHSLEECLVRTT
Protocol: The polarization values were measured after 2 hours incubation, using the Ultra plate reader. […] Curve fitting is performed using GraphPad Prism® software.

[3] = system: MDA-MB-231 human breast cancer cell line; assay: Cell growth inhibition, WST-8 assay, MDA-MB-231; assay type: cell-based; details: MDA-MB-231, read-out: IC50 values (nM) In WST-assay (MDA-MB-231)
Protocol: (§1) The rate of cell growth inhibition after treatment with different concentrations of the compound was determined using a WST-8 kit (2-(2-methoxy-4-nitrophenyl)-3-(4-nitrophenyl)-5-(2, 4 disulfophenyl)-2H-tetrazolium monosodium salt; Dojindo Molecular Technologies, Inc., Gaithersburg, Md.). WST-8 was added at a final concentration of 10% to each well, and then the plates were incubated at 37° C. for 2-3 hrs. The absorbance of the samples was measured at 450 nm using a ULTRA Tecan Reader (Molecular Device).

[4] = system: SK-OV-3; assay: Cell growth inhibition, WST assay, SK-OV-3; assay type: cell-based; details: Homo sapiens
Protocol: as §1, with “Cells were seeded in 96-well flat bottom cell culture plates at a density of 3000 cells/well with a tested compound and incubated at 37° C. in an atmosphere of 95% air and 5% CO2 for 4 days. The rate” for “The rate”

[5] = biological target: T2, XIAP BIR3 protein of human XIAP (residues 241-356) (Homo sapiens, UniProt P98170); assay: Fluorescence polarization (FP) based binding assay to XIAP BIR3; details: read-out: Binding Affinities to XIAP BIR3 (IC50 [uM])
T2 construct: human XIAP (residues 241-356) fused to His-tag; His-tag
T2 sequence (P98170 241-356): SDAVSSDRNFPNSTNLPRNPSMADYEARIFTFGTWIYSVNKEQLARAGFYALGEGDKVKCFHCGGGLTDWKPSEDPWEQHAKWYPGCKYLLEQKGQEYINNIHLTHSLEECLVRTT
Text: In order to test the binding ability of the bivalent Smac mimetics to IAP proteins, a sensitive and quantitative in vitro binding assay using the fluorescence polarization (FP) based method was developed and used to determine the binding affinity of Smac mimetics to XIAP protein (Nikolovska-Coleska et al., Anal Biochem. 332:261-73 (2004)). […] The recombinant XIAP BIR3 protein of human XIAP ([…]) fused to His-tag was stable and soluble, and was used for the FP based binding assay. The dose-dependent binding experiments were carried out with serial dilutions of the tested compounds in DMSO. […] Inc., Research Triangle Park, N.C.). […] Curve fitting was performed using […] PRISM software (GraphPad Software, Inc., San Diego, Calif.).

[6] = system: MDA-MB-231 and SK-OV-3 cancer cell lines; assay: Role of caspase-8, -3 and -9 (siRNA, caspase inhibitors) in activity of Smac mimetics; assay type: cell-based
Text: To examine the role of caspase-8, -3 and -9 in apoptosis induction by Smac mimetics, siRNA was employed against these caspases in MDA-MB-231 and SK-OV-3 cancer cell lines.

[7] = system: MDA-MB-231 xenograft model; assay: Inhibition of tumor growth in the MDA-MB-231 xenograft model; assay type: in vivo, mice; details: 7.5 mg/kg
Protocol: SM-164 was evaluated for its ability to inhibit tumor growth. […] Treatment with SM-164 at 5 mg/kg reduces the tumor volume from 147±54 mm^3 at the beginning of the treatment (day 25) to 54±32 mm^3 at the end of the treatment (day 36), a reduction of 65%. The strong antitumor activity by SM-164 is long lasting and not transient.

[8] = biological target: XIAP (Homo sapiens, UniProt P98170); details: cited from earlier work
XIAP, sequence (P98170 whole entry): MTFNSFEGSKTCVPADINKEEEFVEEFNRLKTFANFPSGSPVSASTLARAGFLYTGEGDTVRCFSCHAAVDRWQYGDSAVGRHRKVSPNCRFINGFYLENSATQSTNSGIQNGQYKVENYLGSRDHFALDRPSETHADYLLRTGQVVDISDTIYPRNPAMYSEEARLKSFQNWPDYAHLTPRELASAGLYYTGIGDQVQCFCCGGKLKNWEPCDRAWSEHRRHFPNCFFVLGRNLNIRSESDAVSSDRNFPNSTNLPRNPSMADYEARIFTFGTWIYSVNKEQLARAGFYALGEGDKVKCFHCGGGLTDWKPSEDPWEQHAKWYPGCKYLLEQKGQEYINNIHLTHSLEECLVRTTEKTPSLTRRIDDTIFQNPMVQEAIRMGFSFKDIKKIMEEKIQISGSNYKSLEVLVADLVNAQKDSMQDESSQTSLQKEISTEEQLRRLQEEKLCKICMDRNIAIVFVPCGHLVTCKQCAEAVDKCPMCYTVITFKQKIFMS

Molecule: CC(C)C[C@@H](C=O)NC(=O)[C@H](CC(C)C)NC(=O)[C@H](CC(C)C)NC(=O)OCc1ccccc1 [MG-132, reference compound] (Cbz-Leu-Leu-Leu-aldehyde)
- effect of proteasome inhibitor on cIAP-1 degradation by SM-122 and SM-164 [1]: effectively blocked cIAP-1 degradation

Molecule: CN[C@@H](C)C(=O)N[C@H]1CCCC[C@H]2CC[C@@H](C(=O)N[C@@H](c3ccccc3)c3cn(CCCCCOCCCCn4cc([C@@H](NC(=O)[C@@H]5CC[C@@H]6CCCC[C@H](NC(=O)[C@H](C)NC)C(=O)N65)c5ccccc5)nn4)nn3)N2C1=O [SH-198]
- IC50 [2]: < 100 nM
- IC50 [3]: < 10 nM
- IC50 [4]: < 10 nM

Molecule: CN[C@@H](C)C(=O)N[C@H]1CCCC[C@H]2CCC(C(=O)N[C@H](COCCCCCCCCCCCCOC[C@@H](NC(=O)[C@@H]3CC[C@@H]4CCCC[C@H](NC(=O)[C@H](C)NC)C(=O)N43)c3ccccc3)c3ccccc3)N2C1=O (stereo partly shown) [SH-202]
- IC50 [2]: < 100 nM
- IC50 [3]: < 10 nM
- IC50 [4]: < 10 nM

Molecule: COC(=O)CC[C@H](NC(=O)[C@H](CC(=O)OC)NC(=O)OCc1ccccc1)C(=O)N[C@H](C(=O)N[C@@H](CC(=O)OC)C(=O)CF)C(C)C [Z-DEVD-FMK, reference compound]
- effect of caspase inhibitor on the activity of both Smac mimetics (SM-164, SM-122) [6]: markedly inhibited

Molecule: CC[C@H](C)[C@H](NC(=O)OCc1ccccc1)C(=O)N[C@@H](CCC(=O)OC)C(=O)N[C@H](C(=O)N[C@@H](CC(=O)OC)C(=O)CF)[C@@H](C)O [Z-IETD-FMK, reference compound] (Cbz-IE(OMe)TD(OMe)-CH2F)
- effect of caspase inhibitor on the activity of both Smac mimetics (SM-164, SM-122) [6]: markedly inhibited

Molecule: CC(=O)O[C@@]12CO[C@@H]1C[C@H](O)[C@@]1(C)C(=O)[C@H](O)C3=C(C)[C@@H](OC(=O)[C@H](O)[C@@H](NC(=O)OC(C)(C)C)c4ccccc4)C[C@@](O)([C@@H](OC(=O)c4ccccc4)[C@H]21)C3(C)C [taxotere, reference compound]
- inhibition of tumor growth compared to control [7]: effective in inhibition of tumor growth
- tumor regression [7]: failed to achieve tumor regression

B1: mature Smac protein: mature Smac protein, endogenous inhibitor of XIAP (protein, UniProt Q9NR28 22-239, looked up)
Diablo IAP-binding …: LCVPVVANFKKRCFSELIRPWHKTVTIGFGVTLCAVPIAQKSEPHSLSSEALMRRAVSLVTDSTSTFLSQTTYALIEAITEYTKAVYTLTSLYRQYTSLLGKMNSEEEDEVWQVIIGARAEMTSKHQEYLKLETTWMTAVGLSEMAAEAAYQTGADQASITARNHIQLVKLQVEEVHQLSRKAETKLAEAQIEELRQKTQEEGEERAESEQEAYLRED
- Kd [8]: 420 nM

Further lines, results first:

- IC50 [5]: < 0.1 µM
Molecule: CN[C@@H](C)C(=O)N[C@H]1CN(C(=O)Cc2ccc(F)cc2)CC[C@H]2CC[C@@H](C(=O)NCc3ccc(F)cc3)N2C1=O [SM-402]

- IC50 [5]: < 0.1 µM
Molecule: CN[C@@H](C)C(=O)N[C@H]1CN(C(=O)CCc2ccc(F)cc2)CC[C@H]2CC[C@@H](C(=O)NC(c3ccc(F)cc3)c3ccc(F)cc3)N2C1=O [SM-404]

- IC50 [5]: < 0.1 µM
Molecule: CN[C@@H](C)C(=O)N[C@H]1CN(C(=O)CC2CCCC2)CC[C@H]2CC[C@@H](C(=O)NC(c3ccccc3)c3ccccc3)N2C1=O [SM-405]

- IC50 [5]: < 0.1 µM
Molecule: CN[C@@H](C)C(=O)N[C@H]1CN(C(=O)CC(C)C)CC[C@H]2CC[C@@H](C(=O)NC(c3ccccc3)c3ccccc3)N2C1=O [SM-406]

- IC50 [5]: < 0.1 µM
Molecule: CN[C@@H](C)C(=O)N[C@H]1CN(C(=O)CCc2ccc(F)cc2)CC[C@H]2CC[C@@H](C(=O)NC(c3ccccc3)c3ccccc3)N2C1=O [SM-407]

- IC50 [5]: < 0.1 µM
Molecule: CN[C@@H](C)C(=O)N[C@H]1CN(C(=O)CCc2ccccc2)CC[C@H]2CC[C@@H](C(=O)NC(c3ccccc3)c3ccccc3)N2C1=O [SM-408]

- IC50 [5]: < 0.1 µM
Molecule: CCCC(=O)N1CC[C@H]2CC[C@@H](C(=O)NC(c3ccccc3)c3ccccc3)N2C(=O)[C@@H](NC(=O)[C@H](C)NC)C1 [SM-409]
